Measured values as given in patent US9796733B2, “Imidazo-pyrazine derivatives useful as soluble guanylate cyclase activators” (Merck Sharp & Dohme Corp., priority 2014, dated 2017).

Target: T1, sGC α1/β1 heterodimer (Homo sapiens, UniProt Q02108+Q02153)
T1 construct: expressed in transfected cells; host or cells: CHO-K1 (clone #7, CHO-K1/sGC)
T1 sequence (Q02108 1-690): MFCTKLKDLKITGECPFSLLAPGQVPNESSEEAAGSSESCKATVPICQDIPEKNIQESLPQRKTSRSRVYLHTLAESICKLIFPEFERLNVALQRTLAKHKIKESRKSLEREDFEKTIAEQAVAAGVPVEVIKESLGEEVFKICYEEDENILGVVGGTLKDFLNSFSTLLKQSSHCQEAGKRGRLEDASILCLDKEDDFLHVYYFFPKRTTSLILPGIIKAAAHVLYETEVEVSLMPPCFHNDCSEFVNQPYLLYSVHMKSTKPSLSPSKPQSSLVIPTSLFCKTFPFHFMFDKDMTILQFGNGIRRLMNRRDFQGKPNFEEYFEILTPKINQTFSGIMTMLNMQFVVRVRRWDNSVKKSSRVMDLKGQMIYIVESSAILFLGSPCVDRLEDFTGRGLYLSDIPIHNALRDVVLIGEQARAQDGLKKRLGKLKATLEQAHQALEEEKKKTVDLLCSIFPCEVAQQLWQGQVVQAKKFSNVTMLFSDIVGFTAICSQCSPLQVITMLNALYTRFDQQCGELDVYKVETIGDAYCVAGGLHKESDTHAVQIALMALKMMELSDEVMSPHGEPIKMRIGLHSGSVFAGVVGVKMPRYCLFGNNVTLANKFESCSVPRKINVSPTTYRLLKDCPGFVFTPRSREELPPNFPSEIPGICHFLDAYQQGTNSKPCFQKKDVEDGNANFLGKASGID
T1 sequence (Q02153 1-619): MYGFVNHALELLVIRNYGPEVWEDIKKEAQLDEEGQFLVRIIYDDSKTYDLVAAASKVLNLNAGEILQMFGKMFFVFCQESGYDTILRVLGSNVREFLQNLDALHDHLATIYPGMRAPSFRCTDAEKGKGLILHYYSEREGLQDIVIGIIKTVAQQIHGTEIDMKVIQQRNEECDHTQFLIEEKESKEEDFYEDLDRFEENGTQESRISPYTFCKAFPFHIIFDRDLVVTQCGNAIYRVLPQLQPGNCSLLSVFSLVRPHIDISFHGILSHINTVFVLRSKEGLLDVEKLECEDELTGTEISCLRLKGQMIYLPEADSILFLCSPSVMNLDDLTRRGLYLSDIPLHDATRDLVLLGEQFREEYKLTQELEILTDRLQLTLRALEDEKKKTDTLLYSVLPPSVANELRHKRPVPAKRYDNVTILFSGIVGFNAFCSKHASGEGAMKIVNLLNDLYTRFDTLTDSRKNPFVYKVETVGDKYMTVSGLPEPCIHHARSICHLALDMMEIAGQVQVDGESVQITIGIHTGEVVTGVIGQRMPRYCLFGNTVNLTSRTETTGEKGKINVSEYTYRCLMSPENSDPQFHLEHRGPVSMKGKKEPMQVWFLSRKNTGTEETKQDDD
Experiment: Cell-based sGC functional assay (CASA assay): cGMP generation in CHO-K1/sGC cells, HTRF detection
Conditions: for Emax: CHO-K1, percent activation relative to standard Compound A in CHO-K1/sGC cells, read-out: % Act.; for EC50: inflection point (IP) of cGMP generation in CHO-K1/sGC cells, 4P fit, activity expressed as percentage of Compound A
Procedure, shortened: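 Stable CHO-K1/sGC cells in EBSS buffer with 5 mM MgCl2, 0.05% BSA and 0.5 mM IBMX were incubated with compound (2.5% DMSO final) ±1 μM DETA-NO for 1 hr at 37° C. cGMP was measured by HTRF. Activation is expressed as % of reference HDA Compound A maximum, with IP and max fold induction from a 4P fit.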

Compound	Emax [%]	EC50 [nM]
CC(C)Cc1nc(-c2nc(N)c3c(n2)NC(=O)C3(c2ccc(C(F)(F)F)cn2)C2CC2)cn2ccnc12 (stereo not shown) [Example 127A, 4-amino-5-cyclopropyl-2-(8-isobutylimidazo[1,2-a]pyrazin-6-yl)-5-(5-(trifluoromethyl)pyridin-2-yl)-5H-pyrrolo[2,3-d]pyrimidin-6(7H)-one]	105	518
CC1(c2ccc(F)cc2)C(=O)Nc2nc(-c3cn4cc(C#N)nc4c(CCC(F)(F)C(F)(F)F)n3)nc(N)c21 (stereo not shown) [Example 275A, 6-(4-Amino-5-(4-fluorophenyl)-5-methyl-6-oxo-6,7-dihydro-5H-pyrrolo[2,3-d]pyrimidin-2-yl)-8-(3,3,4,4,4-pentafluorobutyl)imidazo[1,2-a]pyrazine-2-carbonitrile]	98	89
CNc1nc(-c2cn3ccnc3c(CCC(F)(F)C(F)(F)F)n2)nc2c1C(C)(c1ccc(F)cc1)C(=O)N2 (stereo not shown) [Example 307A, 5-(4-fluorophenyl)-5-methyl-4-(methylamino)-2-(8-(3,3,4,4,4-pentafluorobutyl)imidazo[1,2-a]pyrazin-6-yl)-5H-pyrrolo[2,3-d]pyrimidin-6(7H)-one]	93	152
Cc1ccc(C2(C)C(=O)Nc3nc(-c4cn5ccnc5c(Cc5ccc(F)cc5)n4)nc(N)c32)cn1 (stereo not shown) [Example 105A, 4-amino-2-(8-(4-fluorobenzyl)imidazo[1,2-a]pyrazin-6-yl)-5-methyl-5-(6-methylpyridin-3-yl)-5H-pyrrolo[2,3-d]pyrimidin-6(7H)-one]	102	384
CC1(c2ccc(F)cc2)C(=O)Nc2nc(-c3cn4ccnc4c(C4CC4)n3)nc(N)c21 (stereo not shown) [Example 28A, 4-amino-2-(8-cyclopropylimidazo[1,2-a]pyrazin-6-yl)-5-(4-fluorophenyl)-5-methyl-5H-pyrrolo[2,3-d]pyrimidin-6(7H)-one]	82	652
CC1(C)CN(c2nc(-c3cn4ccnc4c(CCC(F)(F)C(F)(F)F)n3)nc3c2C(C)(c2ccc(F)cc2)C(=O)N3)CCO1 (stereo not shown) [Example 304A, 4-(2,2-dimethylmorpholino)-5-(4-fluorophenyl)-5-mehtyl-2-(8-(3,3,4,4,4-pentafluorobutyl)imidazo[1,2-a]pyrazin-6-yl)-5H-pyrrolo[2,3-d]pyrimidin-6(7H)-one]	89	415
Cc1cnc(C2(C3CC3)C(=O)Nc3nc(-c4cn5ccnc5c(CCCC(F)(F)F)n4)nc(N)c32)cn1 (single isomer, unassigned) [Example 357B, 4-amino-5-cyclopropyl-5-(5-methylpyrazin-2-yl)-2-(8-(4,4,4-trifluorobutyl)imidazo[1,2-a]pyrazin-6-yl)-5H-pyrrolo[2,3-d]pyrimidin-6(7H)-one]	113	680
Cc1cc(F)cnc1C1(C2CC2)C(=O)Nc2nc(-c3cn4ccnc4c(CCC(F)(F)C(F)(F)F)n3)nc(N)c21 (single isomer, unassigned) [Example 375B, 4-amino-5-cyclopropyl-5-(5-fluoro-3-methylpyridin-2-yl)-2-(8-(3,3,4,4,4-pentafluorobutyl)imidazo[1,2-a]pyrazin-6-yl)-5H-pyrrolo[2,3-d]pyrimidin-6(7H)-one]	41	931
Cc1ncc(C2(C3CC3)C(=O)Nc3nc(-c4cn5ccnc5c(CCC(F)(F)C(F)(F)F)n4)nc(N)c32)cn1 (single isomer, unassigned) [Example 348B, 4-amino-5-cyclopropyl-5-(2-methylpyrimidin-5-yl)-2-(8-(3,3,4,4,4-pentafluorobutyl)imidazo[1,2-a]pyrazin-6-yl)-5H-pyrrolo[2,3-d]pyrimidin-6(7H)-one]	175	1550
Nc1nc(-c2cn3cc(C(F)(F)F)nc3c(Cc3cccc(F)c3)n2)nc2c1C(C(=O)NC1CC1)(C1CC1)C(=O)N2 (stereo not shown) [Example 44B, 4-amino-N,5-dicyclopropyl-2-(8-(3-fluorobenzyl)-2-(trifluoromethyl)imidazo[1,2-a]pyrazin-6-yl)-6-oxo-6,7-dihydro-5H-pyrrolo[2,3-d]pyrimidine-5-carboxamide]	88	286
CC(C)Cc1nc(-c2nc(N)c3c(n2)NC(=O)C3(C)c2ccc(F)cc2)cn2ccnc12 (stereo not shown) [Example 19A, 4-amino-5-(4-fluorophenyl)-2-(8-isobutylimidazo[1,2-a]pyrazin-6-yl)-5-methyl-5H-pyrrolo[2,3-d]pyrimidin-6(7H)-one]	113	387

The next compounds have a lower EC50 than those just listed; values first:

Emax [%]	EC50 [nM]	Compound
93	81	CCCCc1nc(-c2nc(N)c3c(n2)NC(=O)C3(C)c2ccc(F)cn2)cn2cc(C)nc12 (stereo not shown) [Example 164B, 4-amino-2-(8-butyl-2-methylimidazo[1,2-a]pyrazin-6-yl)-5-(5-fluoropyridin-2-yl)-5-methyl-5H-pyrrolo[2,3-d]pyrimidin-6(7H)-one]
141	46	CC1(C(=O)NC2CC2)C(=O)Nc2nc(-c3cn4ccnc4c(Cc4cccc(F)c4)n3)nc(N)c21 (single isomer, unassigned) [Example 31A, 4-Amino-N-cyclopropyl-2-(8-(3-fluorobenzyl)imidazo[1,2-a]pyrazin-6-yl)-5-methyl-6-oxo-6,7-dihydro-5H-pyrrolo[2,3-d]pyrimidine-5-carboxamide]
103	33	CC1(c2ccc(OC(F)F)cn2)C(=O)Nc2nc(-c3cn4ccnc4c(CC4CCC4)n3)nc(N)c21 (stereo not shown) [Example 117A, 4-amino-2-(8-(cyclobutylmethyl)imidazo [1,2-a]pyrazin-6-yl)-5-(5-(difluoromethoxy)pyridin-2-yl)-5-methyl-5H-pyrrolo[2,3-d]pyrimidin-6(7H)-one]
112	31	CC(C)(C)CCc1nc(-c2nc(N)c3c(n2)NC(=O)C3(C)c2ccc(Cl)cc2)cn2ccnc12 (stereo not shown) [Example 120A, 4-amino-5-(4-chlorophenyl)-2-(8-(3,3-dimethylbutyl)imidazo[1,2-a]pyrazin-6-yl)-5-methyl-5H-pyrrolo[2,3-d]pyrimidin-6(7H)-one]
127	27	Nc1nc(-c2cn3ccnc3c(Cc3ccccc3)n2)nc2c1C(C(=O)NC1CC1)(C1CC1)C(=O)N2 (single isomer, unassigned) [Example 40B, 4-amino-2-(8-benzylimidazo[1,2-a]pyrazin-6-yl)-N,5-dicyclopropyl-6-oxo-6,7-dihydro-5H-pyrrolo[2,3-d]pyrimidine-5-carboxamide]
130	20	CC1(c2ccc(Cl)cc2)C(=O)Nc2nc(-c3cn4ccnc4cn3)nc(NCCCC(F)(F)F)c21 (stereo not shown) [Example 285A, 5-(4-chlorophenyl)-2-(imidazo[1,2-a]pyrazin-6-yl)-5-methyl-4-((4,4,4-trifluorobutyl)amino)-5H-pyrrolo[2,3-d]pyrimidin-6(7H)-one]
120	20	CCCCc1nc(-c2nc(N)c3c(n2)NC(=O)C3(c2ccc(Cl)cc2)C2CCC2)cn2ccnc12 (single isomer, unassigned) [Example 358B, 4-amino-2-(8-butylimidazo[1,2-a]pyrazin-6-yl)-5-(4-chlorophenyl)-5-cyclobutyl-5H-pyrrolo[2,3-d]pyrimidin-6(7H)-one]
89	15	CC1(c2ccccc2)C(=O)Nc2nc(-c3cn4ccnc4c(Cc4ccccc4)n3)nc(N)c21 (stereo not shown) [Example 102B, 4-amino-2-(8-benzylimidazo[1,2-a]pyrazin-6-yl)-5-methyl-5-phenyl-5H-pyrrolo[2,3-d]pyrimidin-6(7H)-one]
79	10	CC1(c2ccc(Cl)cn2)C(=O)Nc2nc(-c3cn4ccnc4c(CC4CCC4)n3)nc(N)c21 (stereo not shown) [Example 116A, 4-amino-5-(5-chloropyridin-2-yl)-2-(8-(cyclobutylmethyl)imidazo [1,2-a]pyrazin-6-yl)-5-methyl-5H-pyrrolo[2,3-d]pyrimidin-6(7H)-one]
